From patent US10154991B2, “Anesthetic compounds and related methods of use” (priority 2012, dated 2018)
Like-named read-outs stand apart in the source and are kept apart here.

Columns and labels:
[1] = tested on: ICR mice; experiment: In vivo sedative/hypnotic testing, IV bolus, mice; parameters: species or system mouse; details: for Mouse response: IV bolus, doses as in the cell; for ED50: Mus musculus, sedation/hypnosis, IV
Procedure: (§1) Animals were housed in a dedicated room at the vivarium of VivoPath Inc., located at Redstone Center, 55 Union Street, Worcester, Mass. Housing and care was as specified in the USDA Animal Welfare Act (9 CFR, Parts 1, 2, and 3) and as described in the Guide for the Care and Use of Laboratory Animals from the National Research Council. Environmental conditions of housing rooms are set at the following ranges: temperature: 70±7° F. (22±4° C.), humidity: 50±20%, light cycle: 12-hour light/12-hour dark cycle—lights on at 7 am and off at 7 pm., air changes: ten or more air changes per hour with 100% fresh air. The animals' body weights were measured prior to the first dose on each experimental day.
Adult ICR mice (20-30 g) were purchased from Harlan (South Easton, Mass.). Drugs were administered as intravenous bolus injection in a tail vein.
(§2) Drugs were prepared in either dimethylsulfoxide/saline or saline vehicle or hydroxypropyl-β-cyclodextrin (20% in water, pH 7.0) solution and were administered as an intravenous bolus injection. Animals received 1-4 doses of drug(s) during an experimental day, either ascending doses or different drugs. Doses were administered at intervals equal to the longer of 1 h or 10-times the duration of apparent sedative/hypnotic effects from the previous dose. The sedative/hypnotic properties of the drugs were evaluated by observation of the rats, ranging from mild excitation, mild sedation apparent due to reduced activity, and moderate sedation to hypnosis reflected by loss of righting reflex (LORR, the ability to place rear and hind legs under the body, as well as attenuation/loss of nociceptive reflexes).

[2] = tested on: Sprague-Dawley rats; experiment: In vivo sedative/hypnotic testing, IV bolus, rats; parameters: species or system rat; details: for Rat response: IV bolus, doses as in the cell; for ED50: Rattus norvegicus, sedation/hypnosis, IV
Procedure: as §1
Adult male Sprague-Dawley rats (225-300 g) were purchased from Harlan (South Easton, Mass.).
as §2

[3] = In vitro metabolic half-life of hypnotics in rat blood; assay type: in vitro ADME; details: for half-life at 100 μM: Sprague-Dawley, rat; for half-life at 100 μM / metabolic half-life of S form compared with R form: rat blood
Procedure: On the day of study, whole blood was drawn from the femoral venous catheters of 3 Sprague-Dawley rats (1-2 ml/rat), immediately anticoagulated with heparin (38 U), pooled, and stored on ice. A 1 ml aliquot of blood was warmed at 37° C. for 5 minutes and hypnotic (from a 40 mM in dimethyl sulfoxide stock solution) was added to a final concentration of 100 μM. After the desired incubation time, a 150 μl sample was removed and the metabolic reaction was quenched with 150 μl acetonitrile (Sigma-Aldrich, St. Louis, Mo.). Zero time point samples were prepared by adding 150 μl acetonitrile to blood prior to adding hypnotic (from a 4 mM in dimethyl sulfoxide stock solution). The quenched samples were centrifuged and the resultant supernatant separated and stored at −20° C. until analyzed. Hypnotic concentrations in thawed samples were determined by high performance liquid chromatography using a Varian Prostar system with a 4.6×250 mm Proto 300 C18 column (Nest Group, Southborough, Mass.) with the UV detector set at 240 nm.

[4] = Octanol:water partition coefficients; assay type: physicochemical; details: 10 mM Tris pH 7.4; read-out: Octanol/Water Partition Coefficient ± SD (converted)
Procedure: One mg of each hypnotic was added to 10 ml of water buffered with 10 mM Tris (pH 7.4) and 0.5 ml or 1 ml of octanol. The mixture was stirred overnight and then centrifuged to more fully separate the organic and aqueous phases. The relative hypnotic concentrations in each phase (i.e. the partition coefficient) were determined by high performance liquid chromatography as described for blood.

[5] = tested on: rats; experiment: loss of righting reflexes (LORR) assay after IV bolus; details: for ED50: Rattus norvegicus, iv, read-out: ED50 ± SD; for hypnotic potency compared with methoxycarbonyl etomidate and etomidate / in vivo duration of action compared with methoxycarbonyl etomidate and etomidate: rat, in vivo; for death of a rat after dosing: one rat, 20 mg/kg dose; for R/S ED50 ratio: ED50 for LORR of R form over S form
Procedure: Adult male Sprague-Dawley rats (230-350 gm) were purchased from Charles River Laboratories (Wilmington, Mass.) and housed in the Massachusetts General Hospital Center for Comparative Medicine animal care facility. All drugs were administered through a femoral venous catheter pre-implanted by the vendor prior to animal delivery to our animal care facility.
Immediately after injection, rats were turned supine. […] A stopwatch was used to measure the duration of LORR, which was defined as the time from drug injection until the animal spontaneously righted itself.

[6] = tested on: beagle dogs; details: dog, in vivo
Procedure: A pilot study was conducted in dogs to assess anesthesia induced by cyclopropyl-MOC-metomidate continuous infusion without a bolus induction dosing. Two dogs received cyclopropyl-MOC-metomidate as a 1 mg/kg/min IV infusion without prior bolus administration.
Anesthesia induction was determined using the methods described above.
Etomidate was administered to dogs at IV bolus doses ranging from 0.25 to 2 mg/kg. Anesthesia in the dogs was measured as described above. […] The bolus dose of 2 mg/kg was adopted to induce anesthesia prior to subsequent continuous infusions.
Propofol was administered to dogs as an IV bolus dose of 5 mg/kg to induce anesthesia followed by a continuous infusion at 0.4 mg/kg/min.

[7] = pooled heparinised whole blood, 37° C., 100 μM, read-out: Blood Half-Life (95% CI)
[8] = pooled heparinised whole blood, bound based on the lower limit of quantification, read-out: metabolic half-life in rat blood (converted)

C[C@H](c1ccccc1)n1cncc1C(=O)OC1(C(=O)OC2COC2)CC1
Mouse response [1]: No effect at 4 mg/kg IV

COC(=O)c1ccccc1OC(=O)c1cncn1[C@H](C)c1ccccc1
Mouse response [1]: Mild excitation but no sedation at 2, 4 or 8 mg/kg IV

COC(=O)C1(OC(=O)c2cncn2[C@H](C)c2ccccc2)CCCC1
Rat response [2]: Sedative at 1 & 2 mg/kg, with rear paws out but head and forepaws mobile Hypnotic at 4 & 8 mg/kg, quite long-acting

COC(=O)C1(OC(=O)c2cncn2[C@H](C)c2ccccc2)CCCCC1
Rat response [2]: Mildly sedative at 4 mg/kg Hypnotic at 8 mg/kg - deep and long-acting

COC(=O)C1(OC(=O)c2cncn2[C@H](C)c2ccccc2)CCNCC1
Rat response [2]: No effect apparent at 4, 8 & 16 mg/kg

COC(=O)C1(OC(=O)c2cncn2[C@H](C)c2ccccc2)CCN(C)CC1
Rat response [2]: No effect apparent at 4, 8 & 16 mg/kg

COC(=O)C1(OC(=O)c2cncn2[C@H](C)c2ccccc2)CCOCC1
Rat response [2]: Mildly sedative at 16 mg/kg More profound short-acting sedation at 32 mg/kg

COC(=O)C(OC(=O)c1cncn1[C@H](C)c1ccccc1)C1CC1 (stereo partly shown)
Mouse response [1]: Sedation/hypnosis induced at 8, 16 & 32 mg/kg IV | ED50 [1]: ~8 mg/kg

COC(=O)[C@@H](C)OC(=O)c1cncn1[C@H](C)c1ccccc1 [(R)-methyl- methoxycarbonyl metomidate, R-methyl-methoxycarbonyl metomidate]
half-life at 100 μM [3, 7]: < 1.8 s | half-life at 100 μM [3, 8]: < 2 s | logD [4]: 2.58 | ED50 [5]: 9.6 ± 1.9 mg/kg

COC(=O)[C@H](C)OC(=O)c1cncn1[C@H](C)c1ccccc1 [(S)-methyl- methoxycarbonyl metomidate, S-methyl-methoxycarbonyl metomidate]
half-life at 100 μM [3, 7]: 8.4 s | metabolic half-life of S form compared with R form [3]: at least four-fold longer | logD [4]: 2.52 | ED50 [5]: 3.5 ± 0.4 mg/kg

COC(=O)C1(OC(=O)c2cncn2[C@H](C)c2ccccc2)CCC1 [Cyclobutyl-MOC-metomidate, cyclobutyl-methoxycarbonyl metomidate]
Mouse response [1]: Sedation/hypnosis induced at 2, 4 & 8 mg/kg IV | ED50 [1]: 1 to 2 mg/kg | slope of duration of LORR vs logarithm of dose ([1]; mice): approximately 7 | Rat response [2]: Sedation/hypnosis induced at 1, 2, 4 & 8 mg/kg IV | ED50 [2]: ~1 mg/kg | slope of duration of LORR vs logarithm of dose ([2]; rats): ~5 | hypnotic potency compared with methoxycarbonyl etomidate and etomidate [5]: nearly an order of magnitude higher than that of methoxycarbonyl etomidate and similar to that of etomidate | in vivo duration of action compared with methoxycarbonyl etomidate and etomidate [5]: intermediate between those of methoxycarbonyl etomidate and etomidate

COC(=O)C(C)(C)OC(=O)c1cncn1[C@H](C)c1ccccc1 [Dimethyl- methoxycarbonyl metomidate, dimethyl-methoxycarbonyl metomidate]
in vitro metabolic half-life compared with methoxycarbonyl etomidate and etomidate [3]: intermediate between those of methoxycarbonyl etomidate and etomidate | half-life at 100 μM ([3]; 37° C., 100 μM, read-out: Blood Half-Life (95% CI)): 522 s | logD [4]: 2.82 | lethal dose relative to ED50 for LORR ([5]; 20 mg/kg dose vs ED50): 28 fold | ED50 [5]: 0.72 ± 0.16 mg/kg | death of a rat after dosing [5]: died | hypnotic potency compared with methoxycarbonyl etomidate and etomidate [5]: nearly an order of magnitude higher than that of methoxycarbonyl etomidate and similar to that of etomidate | in vivo duration of action compared with methoxycarbonyl etomidate and etomidate [5]: intermediate between those of methoxycarbonyl etomidate and etomidate

COC(=O)COC(=O)c1cncn1[C@H](C)c1ccccc1 [Methoxycarbonyl metomidate, methoxycarbonyl metomidate]
half-life at 100 μM [3, 7]: < 1.8 s | half-life at 100 μM [3, 8]: < 2 s | logD [4]: 2.2 | ED50 [5]: 11.1 ± 0.8 mg/kg

COC(=O)c1cncn1[C@H](C)c1ccccc1 [Metomidate, reference compound]
half-life at 100 μM [3, 7]: 8580 s | logD [4]: 2.58 | ED50 [5]: 0.73 ± 0.5 mg/kg

CC(C)c1cccc(C(C)C)c1O [Propofol]
emergence from anesthesia after the end of infusion [6]: approximately 15 minutes | recovery of normal behavior after infusion [6]: ≥ 30 min | recovery time relative to cyclopropyl-MOC-metomidate infusion of the same duration [6]: approximately 3 fold

COC(=O)[C@@H](OC(=O)c1cncn1[C@H](C)c1ccccc1)C(C)C [R-isopropyl-methoxycarbonyl metomidate]
half-life at 100 μM [3, 7]: 9 s | logD [4]: 3.58 | ED50 [5]: 3.6 ± 0.8 mg/kg | death of a rat after dosing [5]: died after receiving a 20 mg/kg dose

COC(=O)[C@H](OC(=O)c1cncn1[C@H](C)c1ccccc1)C(C)C [S-isopropyl-methoxycarbonyl metomidate]
half-life at 100 μM [3, 7]: 930 s | metabolic half-life of S form compared with R form [3]: two orders of magnitude longer | logD [4]: 3.46 | ED50 [5]: 1.2 ± 0.19 mg/kg | Slope of Duration vs. Log Dose ± SD ([5]; duration of LORR vs log dose, rats): 12.1±1.1 min/(log mg/kg)

CCOC(=O)c1cncn1[C@H](C)c1ccccc1 [drawing 81]
Mouse response [1]: Sedation/hypnosis induced at 2 & 4 mg/kg IV | ED50 [1]: ~0.7 mg/kg | Rat response [2]: Sedation/hypnosis induced at 2 & 4 mg/kg IV | ED50 [2]: ~0.7 mg/kg

COC(=O)C1(OC(=O)c2cncn2[C@H](C)c2ccccc2)CC1 [drawing 83]
Mouse response [1]: Sedation/hypnosis induced at 2 & 4 mg/kg IV | ED50 [1]: ~0.7 mg/kg | Rat response [2]: Sedation/hypnosis induced at 2 & 4 mg/kg IV | ED50 [2]: ~0.7 mg/kg

COC(=O)C(OC(=O)c1cncn1C(C)c1ccccc1)C(C)C (stereo not shown) [isopropyl-methoxycarbonyl metomidate]
R/S ED50 ratio [5]: 3.0

COC(=O)[C@H](C)COC(=O)c1cncn1[C@H](C)c1ccccc1 [α-(R)- methyl- methoxycarbonyl etomidate, α-R-methyl-methoxycarbonyl etomidate]
half-life at 100 μM [3, 7]: 11.4 s | logD [4]: 2.83 | ED50 [5]: 5.2 ± 0.5 mg/kg

COC(=O)[C@@H](C)COC(=O)c1cncn1[C@H](C)c1ccccc1 [α-(S)- methyl- methoxycarbonyl etomidate, α-S-methyl-methoxycarbonyl etomidate]
half-life at 100 μM [3, 7]: 45.6 s | metabolic half-life of S form compared with R form [3]: at least four-fold longer | logD [4]: 2.72 | ED50 [5]: 3.1 ± 0.4 mg/kg

COC(=O)C(C)(C)COC(=O)c1cncn1[C@H](C)c1ccccc1 [α-dimethyl- methoxycarbonyl etomidate, α-dimethyl-MOC-etomidate]
half-life at 100 μM [3, 7]: 156 s | logD [4]: 3.35 | ED50 [5]: 2.4 ± 1 mg/kg

COC(=O)C[C@@H](C)OC(=O)c1cncn1[C@H](C)c1ccccc1 [β-(R)- methyl- methoxycarbonyl etomidate, β-R-methyl-MOC-etomidate]
half-life at 100 μM [3, 7]: 54.6 s | logD [4]: 2.7 | ED50 [5]: 3.5 ± 0.6 mg/kg

cyclopentyl-methoxycarbonyl metomidate
hypnotic potency compared with methoxycarbonyl etomidate and etomidate [5]: nearly an order of magnitude higher than that of methoxycarbonyl etomidate and similar to that of etomidate | in vivo duration of action compared with methoxycarbonyl etomidate and etomidate [5]: intermediate between those of methoxycarbonyl etomidate and etomidate

methyl-methoxycarbonyl metomidate
R/S ED50 ratio [5]: 2.7

α-methyl-methoxycarbonyl etomidate
R/S ED50 ratio [5]: 1.7

β-methyl-methoxycarbonyl etomidate
R/S ED50 ratio [5]: 1.2
